Results taken from PubChem BioAssay (NCI).
Several values for one entry are separate records, joined by “and”; a condition that tells them apart may be missing. Equal values may be shown once.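 Five concentrations, 48 hours, 96-well plates. GI50 marks 50% less growth. Definition used: TGI = concentration required for complete inhibition of growth.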

Experiments:
Experiment in all cases: NCI tumour cell line growth inhibition, 48 h
M14 melanoma = system: M14 melanoma
MDA-MB-435 = system: MDA-MB-435
NCI-H226 lung = system: NCI-H226 lung
OVCAR-8 ovarian = system: OVCAR-8 ovarian
RXF 393 renal = system: RXF 393 renal
SK-MEL-28 melanoma = system: SK-MEL-28 melanoma
SK-MEL-5 melanoma = system: SK-MEL-5 melanoma
SK-OV-3 ovarian = system: SK-OV-3 ovarian
SNB-75 CNS = system: SNB-75 CNS
UO-31 renal = system: UO-31 renal

| Structure (SMILES) | GI50 (M14 melanoma) | TGI (M14 melanoma) [µM] | GI50 (MDA-MB-435) | TGI (MDA-MB-435) [µM] | GI50 (NCI-H226 lung) | TGI (NCI-H226 lung) [µM] | GI50 (OVCAR-8 ovarian) | TGI (OVCAR-8 ovarian) [µM] | GI50 (RXF 393 renal) | TGI (RXF 393 renal) | GI50 (SK-MEL-28 melanoma) | TGI (SK-MEL-28 melanoma) | GI50 (SK-MEL-5 melanoma) | TGI (SK-MEL-5 melanoma) | GI50 (SK-OV-3 ovarian) | TGI (SK-OV-3 ovarian) | GI50 (SNB-75 CNS) | TGI (SNB-75 CNS) | GI50 (UO-31 renal) | TGI (UO-31 renal) |
| --- | --- | --- | --- | --- | --- | --- | --- | --- | --- | --- | --- | --- | --- | --- | --- | --- | --- | --- | --- | --- |
| Cc1nc(SCC(=O)Nc2nc(-c3ccc(Cl)cc3)cs2)n(Nc2ccccc2)c1C | 3.69 µM | 16 | 3.25 µM | 21.8 | 3.37 µM | 18.8 | 2.71 µM | 7.73 | 2.98 µM | 7.33 µM | 10.1 µM | 24.6 µM | 2.24 µM | 6.31 µM | 5.91 µM | 19.8 µM | 3.48 µM | 16.2 µM | 3.59 µM | 37.7 µM |
| FC(F)c1nc2ccccc2n1-c1nc(N2CCOCC2)nc(N2CCOCC2)n1 | 0.566 µM and 0.464 µM | – | 0.397 µM and 0.429 µM | – | 0.249 µM and 0.452 µM | – | 0.639 µM and 0.492 µM | > 100 | 0.0964 µM and 0.138 µM | 0.625 µM and 0.674 µM | 0.174 µM and 0.244 µM | 1.87 µM and 3.79 µM | 0.453 µM and 0.338 µM | 2.11 µM and 2.37 µM | 0.175 µM and 0.27 µM | 1.03 µM and 1.94 µM | 0.0257 µM and 0.0295 µM | 0.403 µM and 0.481 µM | 0.046 µM and 0.103 µM | 0.835 µM and 1.38 µM |
| CCOC(=O)c1sc(-c2ccc(OS(=O)(=O)c3ccc(Br)s3)c(C=O)c2)nc1C | 3.22 µM | 11.3 | 2.47 µM | 6.79 | 3.82 µM | 23.1 | 3.26 µM | 16.5 | 2.81 µM | 13.5 µM | 11.4 µM | 33.4 µM | 1.74 µM | 3.18 µM | 36.4 µM | 97.1 µM | 1.6 µM | 6.7 µM | 2.63 µM | 9.76 µM |
| S=C(Nc1ccc(Br)cc1)Nc1ccc(Br)cc1 | 8.3 µM | > 100 | 6.04 µM | > 100 | > 100 µM | > 100 | 18.2 µM | > 100 | > 100 µM | > 100 µM | 49.8 µM | > 100 µM | 5.4 µM | > 100 µM | > 100 µM | > 100 µM | 98.7 µM | > 100 µM | 12.7 µM | > 100 µM |
| CC(=O)OCC1OC(n2c(-c3ccc(Cl)cc3)ccc(C#N)c2=S)C(OC(C)=O)C(OC(C)=O)C1OC(C)=O (stereo unspecified) | – | > 100 | – | > 100 | – | > 100 | 16.4 µM and 34.9 µM | > 100 | – | 36.3 µM and 74.5 µM | – | > 100 µM | > 66.1 µM and 32.2 µM | > 100 µM | 16.4 µM and 47.9 µM | 44.9 µM and > 100 µM | 5.05 µM and 26.9 µM | 14 µM and 82.9 µM | – | > 100 µM |
| O=C(CP(=O)(O)O)NC(CC(=O)OCc1ccccc1)C(=O)OCc1ccccc1 (stereo unspecified) | – | > 100 | – | > 100 | – | > 100 | – | > 100 | – | > 100 µM | – | > 100 µM | – | > 100 µM | – | > 100 µM | – | > 100 µM | – | > 100 µM |
| CN(C)CCCOc1ccc(-c2ccc3ncc4c(c3c2)n(C2CCOCC2)c(=O)n4C)cn1 | 1.78 µM | 13.8 | 1.65 µM | 11.3 | 1.73 µM | 15.2 | 3.24 µM | 17.2 | 0.838 µM | 4.85 µM | 1.97 µM | 13 µM | 1.48 µM | 7.47 µM | 0.514 µM | 4.19 µM | 0.396 µM | 6.45 µM | 0.494 µM | 5.89 µM |
